According to patent publication US20210045385A1, “PYRIDAZINONE-SUBSTITUTED KETOXIMES AS HERBICIDES” (FMC Corporation, priority 2018, published 2021):

Tests used:
Type in all cases: in vivo
[1] = system: Italian ryegrass (Lolium multiflorum); assay: Test A preemergence, visual plant response rating; conditions: for Ryegrass, Italian plant response rating: 125 g ai/ha, preemergence, 0 to 100 scale, 0 no effect, 100 complete control; for Ryegrass, Italian plant response rating (0 to 100 scale): approx. 10 days
How it was run: (§1)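 Preemergence: seeds in loam/sand blend given directed soil spray of compound in non-phytotoxic solvent with surfactant. Postemergence: plants 2–10 cm, one- to two-leaf stage, sprayed with same formulation. Visual injury rated vs untreated controls after ~10 days in greenhouse, 0 (no effect) to 100 (complete control).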

[2] = system: barnyardgrass (Echinochloa crus-galli); assay: Test A preemergence, visual plant response rating; conditions: for Barnyardgrass plant response rating: 125 g ai/ha, preemergence, 0 to 100 scale, 0 no effect, 100 complete control; for Barnyardgrass plant response rating (0 to 100 scale): approx. 10 days
How it was run: as §1

[3] = system: foxtail, giant (giant foxtail, Setaria faberii); assay: Test A preemergence, visual plant response rating; conditions: for Foxtail, Giant plant response rating: 125 g ai/ha, preemergence, 0 to 100 scale, 0 no effect, 100 complete control; for Foxtail, Giant plant response rating (0 to 100 scale): approx. 10 days
How it was run: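 Ratings use a 0–100 visual scale (100 = complete control) against untreated controls, scored about 10 days after greenhouse treatment. Test chemicals were formulated in surfactant-containing non-phytotoxic solvent and applied either as soil spray after planting (preemergence) or onto one- to two-leaf, 2–10 cm plants (postemergence).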

kochia (Kochia scoparia) [4] = assay: Test A preemergence, visual plant response rating; conditions: for Kochia plant response rating: 125 g ai/ha, preemergence, 0 to 100 scale, 0 no effect, 100 complete control; for Kochia plant response rating (0 to 100 scale): approx. 10 days
How it was run: as §1

[5] = system: pigweed (Amaranthus retroflexus); assay: Test A preemergence, visual plant response rating; conditions: for Pigweed plant response rating: 125 g ai/ha, preemergence, 0 to 100 scale, 0 no effect, 100 complete control; for Pigweed plant response rating (0 to 100 scale): approx. 10 days
How it was run: as §1

[6] = system: ragweed (common ragweed, Ambrosia elatior); assay: Test A preemergence, visual plant response rating; conditions: for Ragweed plant response rating: 125 g ai/ha, preemergence, 0 to 100 scale, 0 no effect, 100 complete control; for Ragweed plant response rating (0 to 100 scale): approx. 10 days
How it was run: as §1

[7] = system: Italian ryegrass (Lolium multiflorum); assay: Test A postemergence, visual plant response rating; conditions: for Ryegrass, Italian plant response rating: 125 g ai/ha, 0 to 100 scale (0 no effect, 100 complete control)
How it was run: as §1

[8] = system: barnyardgrass (Echinochloa crus-galli); assay: Test A postemergence, visual plant response rating; conditions: for Barnyardgrass plant response rating (0 to 100 scale): 500 g ai/ha, postemergence, 0 is no effect, 100 is complete control; for Barnyardgrass plant response rating: Postemergence, 125 g ai/ha, 0 to 100 scale (0 no effect, 100 complete control)
How it was run: as §1

[9] = system: blackgrass (Alopecurus myosuroides); assay: Test A postemergence, visual plant response rating; conditions: for Blackgrass plant response rating (0 to 100 scale): 500 g ai/ha, postemergence, 0 is no effect, 100 is complete control; for Blackgrass plant response rating: Postemergence, 125 g ai/ha, 0 to 100 scale (0 no effect, 100 complete control)
How it was run: as §1

corn (Zea mays) = assay: Test A postemergence, visual plant response rating; conditions: for Corn plant response rating (0 to 100 scale): 500 g ai/ha, postemergence, 0 is no effect, 100 is complete control; for Corn plant response rating: Postemergence, 125 g ai/ha, 0 to 100 scale (0 no effect, 100 complete control)
How it was run: as §1

[10] = system: foxtail, giant (giant foxtail, Setaria faberii); assay: Test A postemergence, visual plant response rating; conditions: for Foxtail, Giant plant response rating (0 to 100 scale): 500 g ai/ha, postemergence, 0 is no effect, 100 is complete control; for Foxtail, Giant plant response rating: Postemergence, 125 g ai/ha, 0 to 100 scale (0 no effect, 100 complete control)
How it was run: as §1

[11] = system: galium (catchweed bedstraw, Galium aparine); assay: Test A postemergence, visual plant response rating; conditions: for Galium plant response rating (0 to 100 scale): 500 g ai/ha, postemergence, 0 is no effect, 100 is complete control; for Galium plant response rating: Postemergence, 125 g ai/ha, 0 to 100 scale (0 no effect, 100 complete control)
How it was run: as §1

kochia (Kochia scoparia) [12] = assay: Test A postemergence, visual plant response rating; conditions: for Kochia plant response rating (0 to 100 scale): 500 g ai/ha, postemergence, 0 is no effect, 100 is complete control; for Kochia plant response rating: Postemergence, 125 g ai/ha, 0 to 100 scale (0 no effect, 100 complete control)
How it was run: as §1

[13] = system: pigweed (Amaranthus retroflexus); assay: Test A postemergence, visual plant response rating; conditions: for Pigweed plant response rating (0 to 100 scale): 500 g ai/ha, postemergence, 0 is no effect, 100 is complete control; for Pigweed plant response rating: Postemergence, 125 g ai/ha, 0 to 100 scale (0 no effect, 100 complete control)
How it was run: as §1

[14] = system: ragweed (common ragweed, Ambrosia elatior); assay: Test A postemergence, visual plant response rating; conditions: for Ragweed plant response rating (0 to 100 scale): 500 g ai/ha, postemergence, 0 is no effect, 100 is complete control; for Ragweed plant response rating: Postemergence, 125 g ai/ha, 0 to 100 scale (0 no effect, 100 complete control)
How it was run: as §1

[15] = system: wheat (Triticum aestivum); assay: Test A postemergence, visual plant response rating; conditions: for Wheat plant response rating: 0 to 100 scale (0 no effect, 100 complete control)
How it was run: as §1

[16] = system: barnyardgrass (Echinochloa crus-galli); assay: Test B flooded paddy test, visual plant response rating; conditions: 250 g ai/ha, Flood, applied to paddy water, 2-leaf stage, evaluated after 13 to 15 days
How it was run: (§2)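 Test pots are flooded 3 cm above the soil at treatment, and the test substance is introduced into this standing water. After keeping the flood level and growing plants, treated at the 2-leaf stage, for 13 to 15 days under glass, injury is assessed visually versus controls.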

[17] = system: ducksalad (Heteranhera limosa); assay: as above; conditions: 250 g ai/ha, Flood, applied to paddy water, 2-leaf stage, evaluated after 13 to 15 days
How it was run: as §2

rice (Oryza sativa) = assay: as above; conditions: 250 g ai/ha, Flood, applied to paddy water, 2-leaf stage, evaluated after 13 to 15 days
How it was run: as §2

[18] = system: sedge, umbrella (small-flower umbrella sedge, Cyperus difformis); assay: as above; conditions: 250 g ai/ha, Flood, applied to paddy water, 2-leaf stage, evaluated after 13 to 15 days
How it was run: as §2

[19] = 500 g ai/ha, postemergence, 0 is no effect, 100 is complete control

| SMILES | Ryegrass, Italian plant response rating (0 to 100 scale) ([1]; 500 g ai/ha Preemergence) | Barnyardgrass plant response rating (0 to 100 scale) ([2]; 500 g ai/ha Preemergence) | Foxtail, Giant plant response rating (0 to 100 scale) ([3]; 500 g ai/ha Preemergence) | Kochia plant response rating (0 to 100 scale) (kochia (Kochia scoparia) [4]; 500 g ai/ha Preemergence) | Pigweed plant response rating (0 to 100 scale) ([5]; 500 g ai/ha Preemergence) | Ragweed plant response rating (0 to 100 scale) ([6]; 500 g ai/ha Preemergence) | Ryegrass, Italian plant response rating (0 to 100 scale) [7, 19] | Barnyardgrass plant response rating (0 to 100 scale) [8] | Barnyardgrass plant response rating [8] | Blackgrass plant response rating (0 to 100 scale) [9] | Blackgrass plant response rating [9] | Corn plant response rating (0 to 100 scale) (corn (Zea mays)) | Corn plant response rating (corn (Zea mays)) | Foxtail, Giant plant response rating (0 to 100 scale) [10] | Foxtail, Giant plant response rating [10] | Galium plant response rating (0 to 100 scale) [11] | Galium plant response rating [11] | Kochia plant response rating (0 to 100 scale) (kochia (Kochia scoparia) [12]) | Kochia plant response rating (kochia (Kochia scoparia) [12]) | Pigweed plant response rating (0 to 100 scale) [13] | also measured |
| --- | --- | --- | --- | --- | --- | --- | --- | --- | --- | --- | --- | --- | --- | --- | --- | --- | --- | --- | --- | --- | --- |
| CCCO/N=C(\c1c(O)c(C)nn(C)c1=O)c1cccc2ccccc12 [Compound 80] | 30 | 80 | 100 | 10 | 100 | 100 | 70 | 60 | 50 | 90 | 70 | 20 | 10 | 80 | 60 | 90 | 80 | 60 | 30 | 80 | Ryegrass, Italian plant response rating [1]: 10; Barnyardgrass plant response rating [2]: 60; Foxtail, Giant plant response rating [3]: 60; Kochia plant response rating (kochia (Kochia scoparia) [4]): 0; Pigweed plant response rating [5]: 20; Ragweed plant response rating [6]: 50; Ryegrass, Italian plant response rating ([7]; Postemergence): 20; Pigweed plant response rating [13]: 70; Ragweed plant response rating (0 to 100 scale) [14]: 90; Ragweed plant response rating [14]: 80; Wheat plant response rating (0 to 100 scale) [15, 19]: 0; Wheat plant response rating ([15]; Postemergence, 125 g ai/ha): 0; Plant response rating, Barnyardgrass (0 to 100 scale, 0 is no effect, 100 is complete control) [16]: 0; Plant response rating, Ducksalad (0 to 100 scale, 0 is no effect, 100 is complete control) [17]: 0; Plant response rating, Rice (0 to 100 scale, 0 is no effect, 100 is complete control) (rice (Oryza sativa)): 0; Plant response rating, Sedge, Umbrella (0 to 100 scale, 0 is no effect, 100 is complete control) [18]: 0 |
| C=CCn1nc(C)c(O)c(C(=NOC)c2cccc(Cl)c2)c1=O (mixture of isomers) [Compound 5] | 20 | 70 | 10 | 0 | 0 | 0 | 30 | 30 | 10 | 50 | 10 | 0 | 0 | 10 | 0 | 0 | 0 | 0 | 0 | 0 | Ryegrass, Italian plant response rating (0 to 100 scale) ([1]; 125 g ai/ha Preemergence): 0; Barnyardgrass plant response rating (0 to 100 scale) ([2]; 125 g ai/ha Preemergence): 20; Foxtail, Giant plant response rating (0 to 100 scale) ([3]; 125 g ai/ha Preemergence): 0; Kochia plant response rating (0 to 100 scale) (kochia (Kochia scoparia) [4]; 125 g ai/ha Preemergence): 0; Pigweed plant response rating (0 to 100 scale) ([5]; 125 g ai/ha Preemergence): 0; Ragweed plant response rating (0 to 100 scale) ([6]; 125 g ai/ha Preemergence): 0; Ryegrass, Italian plant response rating ([7]; Postemergence): 0; Pigweed plant response rating [13]: 0; Ragweed plant response rating (0 to 100 scale) [14]: 0; Ragweed plant response rating [14]: 0; Wheat plant response rating (0 to 100 scale) [15, 19]: 0; Wheat plant response rating ([15]; Postemergence, 125 g ai/ha): 0; Plant response rating, Barnyardgrass (0 to 100 scale, 0 is no effect, 100 is complete control) [16]: 0; Plant response rating, Ducksalad (0 to 100 scale, 0 is no effect, 100 is complete control) [17]: 0; Plant response rating, Rice (0 to 100 scale, 0 is no effect, 100 is complete control) (rice (Oryza sativa)): 0; Plant response rating, Sedge, Umbrella (0 to 100 scale, 0 is no effect, 100 is complete control) [18]: 0 |
| CON=C(c1ccc(C)o1)c1c(O)c(C)nn(C)c1=O [Compound 141] | 20 | 0 | 0 | 0 | 0 | 0 | 0 | 0 | 0 | 30 | 10 | 0 | 0 | 0 | 0 | 10 | 0 | 0 | 0 | 0 | Ryegrass, Italian plant response rating [1]: 0; Barnyardgrass plant response rating [2]: 0; Foxtail, Giant plant response rating [3]: 0; Kochia plant response rating (kochia (Kochia scoparia) [4]): 0; Pigweed plant response rating [5]: 0; Ragweed plant response rating [6]: 0; Ryegrass, Italian plant response rating (0 to 100 scale) ([7]; Postemergence, rate not given, approx. 10 days): 0; Pigweed plant response rating [13]: 0; Ragweed plant response rating (0 to 100 scale) [14]: 0; Ragweed plant response rating [14]: 0; Wheat plant response rating ([15]; Postemergence, 500 g ai/ha): 0; Wheat plant response rating (0 to 100 scale) ([15]; Postemergence, approx. 10 days): 0; Plant response rating, Barnyardgrass (0 to 100 scale, 0 is no effect, 100 is complete control) [16]: 0; Plant response rating, Ducksalad (0 to 100 scale, 0 is no effect, 100 is complete control) [17]: 0; Plant response rating, Rice (0 to 100 scale, 0 is no effect, 100 is complete control) (rice (Oryza sativa)): 0; Plant response rating, Sedge, Umbrella (0 to 100 scale, 0 is no effect, 100 is complete control) [18]: 0 |
